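Where inhibition never reached the appropriate level, the endpoint shown equals the highest concentration tested. Otherwise, values were interpolated linearly from a five-concentration, 48-hour dose response in 96-well plates. Here, GI50 denotes the concentration required for 50% inhibition of growth. At the TGI there is no net growth.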
Tests used:
Assay in all cases: NCI tumour cell line growth inhibition, 48 h
[1] = tested on: HCC-2998 colon
[2] = tested on: RPMI-8226 leukemia
[3] = tested on: A549 NSCLC
[4] = tested on: SW-620 colon
[5] = tested on: NCI-H460 lung
[6] = tested on: MALME-3M melanoma
[7] = tested on: CAKI-1 renal
[8] = tested on: 786-0 renal
[9] = tested on: HOP-62 NSCLC
[10] = tested on: A498 renal

| Compound | TGI [1] [µM] | TGI [2] [µM] | TGI [3] [µM] | TGI [4] [µM] | TGI [5] [µM] | TGI [6] [µM] | TGI [7] [µM] | TGI [8] [µM] | GI50 [1] [µM] | GI50 [2] [µM] | GI50 [3] [µM] | GI50 [4] [µM] | GI50 [5] [µM] | GI50 [6] [µM] | GI50 [7] [µM] | GI50 [8] [µM] | GI50 [9] [µM] | TGI [9] [µM] | GI50 [10] [µM] | TGI [10] [µM] |
| --- | --- | --- | --- | --- | --- | --- | --- | --- | --- | --- | --- | --- | --- | --- | --- | --- | --- | --- | --- | --- |
| Cc1csc(CCC(N)C(=O)O)n1 (stereo not given) | > 100 | > 100 | > 100 | > 100 | > 100 | > 100 | > 100 | > 100 | – | – | – | – | – | – | – | – | – | – | – | – |
| O=C(CN(/C=C/C(=O)C(F)(F)F)c1ccccc1)c1ccc(F)cc1 | 41.6 | 54 | > 100 | 42.9 | 59.3 | 74.1 | 48.9 | > 100 | 17.8 | 19.3 | 35.4 | 19.9 | 22.6 | 26.7 | 19.8 | 41.1 | 75.1 | > 100 | – | – |
| COc1cc2c3c(n(CCCN4CCSCC4)c(=O)c2cc1OC)-c1cc2c(cc1C3=O)OCO2 | > 100 | – | > 100 | > 100 | > 100 | > 100 | > 100 | 75.5 | 35.1 | – | > 100 | 96.8 | 49.7 | 67.5 | 21.1 | 25.2 | 26.2 | 73.7 | – | – |
| O[C@]12c3ccccc3C1CCCCC2N1CCOCC1 (stereo not given in full) | – | > 100 | > 100 | > 100 | > 100 | > 100 | – | > 100 | – | – | – | – | – | – | – | – | – | > 100 | – | – |
| C=C(C)[C@@H]1CC[C@]2(C(=O)n3ccnc3)CC[C@]3(C)[C@H](CC[C@@H]4[C@@]5(C)CCCNC(C)(C)[C@@H]5CC[C@]43C)[C@@H]12 | 3.2 | – | 3.62 | 3.39 | 3.4 | 2.86 | – | 2.96 | 1.64 | – | 1.94 | 1.68 | 1.76 | 1.31 | – | 1.45 | 1.75 | 3.31 | 10.4 | 29.8 |
| O=C1c2ccccc2-c2c1c1ccc([N+](=O)[O-])cc1c(=O)n2CCCCl | – | 33.3 | > 100 | > 100 | 67.5 | – | > 100 | > 100 | – | 1.36 | > 100 | 3.12 | 2.61 | – | 2.45 | > 100 | 43.8 | > 100 | – | – |
| CN1CCOCCOCCOc2ccccc2NC(=O)c2nc(cnc2N)-c2ccc(cc2)S1(=O)=O | > 100 | – | – | – | – | > 100 | – | 23.3 | > 100 | – | – | – | – | > 100 | – | 0.0398 | 14.7 | 46.2 | 0.0241 | 3.93 |
| O=C(Nc1ccc(Br)cc1)Nc1cccc(Br)c1 | – | – | – | > 100 | – | > 100 | > 100 | > 100 | – | – | – | 5.54 | – | 8.69 | > 100 | 34.5 | 7.24 | > 100 | 4.81 | > 100 |
| Cc1n(Cc2ccc3ccccc3n2)cc[n+]1Cc1ccc2ccccc2c1 | 7.24 | 6.63 | 13.4 | 13.3 | 11.2 | 2.37 | – | 18.2 | 0.819 | 0.376 | 1.34 | 1.82 | 0.659 | 0.394 | – | 4.36 | 1.79 | 7.36 | 1.84 | 10.2 |
| Nc1c(C(=O)Nc2ccccc2O)[n+]([O-])c2ccccc2[n+]1[O-] | – | > 100 | > 100 | 48.6 | > 100 | > 100 | > 100 | > 100 | – | – | – | – | – | – | – | – | – | > 100 | – | > 100 |
| CCOC(=O)[C@@H]1C[C@@H]1c1ccc(O)c(O)c1 | 67.7 | 77 | > 100 | 42.2 | > 100 | > 100 | > 100 | 34.7 | – | – | – | – | – | – | – | – | – | > 100 | – | – |
| CC(C)CCCC(C)[C@H]1CCC2[C@@H]3CCC4Cc5nc6c(nc5C[C@]4(C)C3CC[C@@]21C)CC1CC[C@@H]2C(CC[C@@]3(C)C2CC[C@@H]3O)[C@@]1(C)C6 (stereo not given in full) | – | > 100 | > 100 | > 100 | > 100 | > 100 | – | > 100 | – | – | – | – | – | – | – | – | – | > 100 | – | > 100 |
